Test results from ChEMBL document CHEMBL2346619, “Cardioprotective potential of N,α-L-rhamnopyranosyl vincosamide, an indole alkaloid, isolated from the leaves of Moringa oleifera in isoproterenol induced cardiotoxic rats: in vivo and in vitro studies” (Bioorg Med Chem Lett, 2013).
Values after ≈ are worked out from the molar mass of the structure shown.

Assays:
[1] = Antioxidant activity assessed as super oxide scavenging activity; assay type: functional
Rattus norvegicus [2] = experiment: Effect on Wister albino rat LOOH level in serum per mg of protein at 40 mg/kg, po for 7 days (reference value: 2.90 +/- 0.74 noml/mg of protein); assay type: ADME, organism-based; set-up: dose 40 mg/kg, route oral; conditions: in vivo, 168 h
Rattus norvegicus [3] = experiment: Cardioprotective effect in isoproterenol-induced Wister albino rats assessed as cTnT level in serum at 40 mg/kg, po for 7 days (reference value: 1.99 +/- 0.06 ng/ml); assay type: functional
Rattus norvegicus [4] = experiment: Effect on Wister albino rat MDA level in serum per mg of protein at 40 mg/kg, po for 7 days (reference value: 0.67 +/- 0.03 nmol/h/mg of protein); assay type: ADME, organism-based; set-up: dose 40 mg/kg, route oral; conditions: in vivo, 168 h
[5] = Antioxidant activity assessed as ABTS radical scavenging activity; assay type: functional
Rattus norvegicus [6] = experiment: Effect on Wister albino rat LDH level in serum at 40 mg/kg, po for 7 days (reference value: 29.64 +/- 6.71 IU/L); assay type: ADME, organism-based; set-up: dose 40 mg/kg, route oral; conditions: in vivo, 168 h
Rattus norvegicus [7] = experiment: Cardioprotective effect in isoproterenol-induced Wister albino rats assessed as MDA level in serum per mg protein at 40 mg/kg, po for 7 days (reference value: 2.76 +/- 0.39 nmol/h/mg of protein); assay type: functional
Rattus norvegicus [8] = experiment: Cardioprotective effect in isoproterenol-induced Wister albino rats assessed as LDH level in serum at 40 mg/kg, po for 7 days (reference value: 216.66 +/- 12.46 IU/L); assay type: functional
Rattus norvegicus [9] = experiment: Cardioprotective effect in isoproterenol-induced Wister albino rats assessed as tissue viability with less necrotic tissue at 40 mg/kg, po for 7 days by light microscopy (reference value: 52%); assay type: functional
Rattus norvegicus [10] = experiment: Effect on Wister albino rat SGPT level in serum at 40 mg/kg, po for 7 days (reference value: 30.25 +/- 3.17 U/L); assay type: ADME, organism-based; set-up: dose 40 mg/kg, route oral; conditions: in vivo, 168 h
[11] = tested on: Radical scavenging activity; experiment: Antioxidant activity assessed as DPPH radical scavenging activity; assay type: functional
Rattus norvegicus [12] = experiment: Cardioprotective effect in isoproterenol-induced Wister albino rats assessed as SGPT level in serum at 40 mg/kg, po for 7 days (reference value: 76.07 +/- 4.16 U/L); assay type: functional
Rattus norvegicus [13] = experiment: Cardioprotective effect in isoproterenol-induced Wister albino rats assessed as inflammatory cells at 40 mg/kg, po for 7 days by light microscopy (reference value: 30.1%); assay type: functional
[14] = Antioxidant activity assessed as nitric oxide scavenging activity; assay type: functional
Rattus norvegicus [15] = experiment: Cardioprotective effect in isoproterenol-induced Wister albino rats assessed as tissue degradation at 40 mg/kg, po for 7 days by light microscopy (reference value: 55.15%); assay type: functional
Rattus norvegicus [16] = experiment: Cardioprotective effect in isoproterenol-induced Wister albino rats assessed as CK-MB level in serum at 40 mg/kg, po for 7 days (reference value: 146.56 +/- 7.14 IU/L); assay type: functional
Rattus norvegicus [17] = experiment: Cardioprotective effect in isoproterenol-induced Wister albino rats assessed as inhibition of ST-segment elevation at 40 mg/kg, po for 7 days by Electrocardiographic assay (reference value: 0.390 +/- 0.015 mV); assay type: functional
Rattus norvegicus [18] = experiment: Effect on Wister albino rat heart rate elevation at 40 mg/kg, po by Electrocardiographic assay (reference value: 265 +/- 3.71 beats/mins); assay type: ADME, organism-based; set-up: dose 40 mg/kg, route oral; conditions: in vivo
Rattus norvegicus [19] = experiment: Cardioprotective effect in isoproterenol-induced Wister albino rats assessed as inhibition of heart rate at 40 mg/kg, po for 7 days by Electrocardiographic assay (reference value: 430 +/- 5.16 beats/mins); assay type: functional
Rattus norvegicus [20] = experiment: Cardioprotective effect in isoproterenol-induced Wister albino rats assessed as LOOH level in serum per mg protein at 40 mg/kg, po for 7 days (reference value: 7.67 +/- 1.07 noml/mg of protein); assay type: functional
Rattus norvegicus [21] = experiment: Effect on Wister albino rat ST-segment elevation at 40 mg/kg, po by Electrocardiographic assay (reference value: 0.157 +/- 0.003 mV); assay type: ADME, organism-based; set-up: dose 40 mg/kg, route oral; conditions: in vivo
Rattus norvegicus [22] = experiment: Effect on Wister albino rat inflammatory cells at 40 mg/kg, po by light microscopy (reference value: 0%); assay type: ADME, organism-based; set-up: dose 40 mg/kg, route oral; conditions: in vivo
Rattus norvegicus [23] = experiment: Effect on Wister albino rat cTnT level in serum at 40 mg/kg, po for 7 days (reference value: 0.66 +/- 0.02 ng/ml); assay type: ADME, organism-based; set-up: dose 40 mg/kg, route oral; conditions: in vivo, 168 h
Rattus norvegicus [24] = experiment: Effect on Wister albino rat tissue degradation at 40 mg/kg, po by light microscopy (reference value: 0%); assay type: ADME, organism-based; set-up: dose 40 mg/kg, route oral; conditions: in vivo
Rattus norvegicus [25] = experiment: Effect on Wister albino rat CK-MB level in serum at 40 mg/kg, po for 7 days (reference value: 84.68 +/- 3.67 IU/L); assay type: ADME, organism-based; set-up: dose 40 mg/kg, route oral; conditions: in vivo, 168 h
[26] = Antioxidant activity assessed as hydroxy radical scavenging activity; assay type: functional

- IC50 [1]: 16.71 µg/mL (≈ 25.3 µM)
- Activity (Rattus norvegicus [2]): 2.62 nmol
- Activity (Rattus norvegicus [4]): 0.79 nmol/h/mg protein
- IC50 [5]: 29.65 µg/mL (≈ 44.9 µM)
- Activity (Rattus norvegicus [6]): 117.34 IU/L
- Activity (Rattus norvegicus [10]): 22.11 U/L
- IC50 [11]: 37.76 µg/mL (≈ 57.2 µM)
- IC50 [14]: 7.16 µg/mL (≈ 10.8 µM)
- Activity (Rattus norvegicus [21]): 0.14 mV
- Activity (Rattus norvegicus [22]): 0%
- Activity (Rattus norvegicus [23]): 0.62 ng/mL
- Activity (Rattus norvegicus [24]): 0%
- Activity (Rattus norvegicus [25]): 82.12 IU/L
- IC50 [26]: 4.95 µg/mL (≈ 7.49 µM)
Structure (SMILES): C=C[C@H]1[C@H](O[C@@H]2O[C@H](CO)[C@@H](O)[C@H](O)[C@H]2O)OC=C2C(=O)N3CCc4c(n(O[C@@H]5O[C@@H](C)[C@H](O)[C@@H](O)[C@H]5O)c5ccccc45)[C@H]3C[C@H]21
- Activity (Rattus norvegicus [3]): 0.67 ng/mL
- Activity (Rattus norvegicus [7]): 0.99 nmol/h/mg protein
- Activity (Rattus norvegicus [8]): 160.72 IU/L
- Activity (Rattus norvegicus [9]): 20%
- Activity (Rattus norvegicus [12]): 58.92 U/L
- Activity (Rattus norvegicus [13]): 0%
- Activity (Rattus norvegicus [15]): 0%
- Activity (Rattus norvegicus [16]): 92.01 IU/L
- Activity (Rattus norvegicus [17]): 0.22 mV
- Activity (Rattus norvegicus [18]): 270 bpm
- Activity (Rattus norvegicus [19]): 260 bpm
- Activity (Rattus norvegicus [20]): 4.1 nmol
